Measured values reported in US20230391786A1, “cGAS INHIBITORS” (Eli Lilly and Company, priority 2022, published 2023).
Counter-ions that a name gives are not always drawn.

target: recombinant human cGAS (Homo sapiens (Human), UniProt Q8N884); assay: In vitro inhibition assay of cGAS activity (cGAMP production, RapidFire mass spectrometry); type: biochemical; details: 10 nM recombinant human cGAS, 60 nM 75-bp dsDNA, ATP, GTP, room temperature 3 hours, read-out: IC50 (μM), In vitro inhibition assay for Compounds 1-94
Procedure: Expression and Purification of Recombinant cGAS Protein: Insert cDNA encoding full-length of human cGAS into a modified bacterial expression vector containing an in-frame His6-tag. Induce the E. coli strain BL21(DE3) harboring the plasmid with 1 mM IPTG (Isopropyl β-D-1-thiogalactopyranoside) at 18° C. overnight. Purify the His6-tagged cGAS protein over HISpur Ni-NTA resin in the presence of benzonase and RNase followed by Superdex 200 size exclusion chromatography with storage buffer (50 mM Tris-HCl pH 7.5, 300 mM NaCl, 1 mM DTT, 10% glycerol).
In vitro inhibition assay of cGAS activity: Add a 5 μL mixture containing 10 mM Tris-Cl pH 7.5, 50 mM NaCl, 5 mM MgCl2, 1 mM DTT, 0.01% Triton X-100, 60 nM 75-bp dsDNA, […], 50 μM GTP, 10 nM of recombinant human cGAS, and serial dilutions of a test compound in DMSO to a 384-well plate and incubate at room temperature for 3 hours. Quench the reaction by the addition of 100 μL of stop solution containing 0.1% formic acid and 0.1 μM internal standard (3′3′-difluoro cGAMP). Measure the amount of cGAMP produced by RapidFire 365 mass spectrometry and evaluate inhibitory effect of a compound by plotting percent specific inhibition of cGAMP production against log concentration of the test compound. Calculate IC50 values using a 4-parameter non-linear logistic equation (y=(S0+((SInf−S0)/(1+((qAC50/x)^nHill))))).

recombinant human cGAS, sequence (Q8N884 whole entry): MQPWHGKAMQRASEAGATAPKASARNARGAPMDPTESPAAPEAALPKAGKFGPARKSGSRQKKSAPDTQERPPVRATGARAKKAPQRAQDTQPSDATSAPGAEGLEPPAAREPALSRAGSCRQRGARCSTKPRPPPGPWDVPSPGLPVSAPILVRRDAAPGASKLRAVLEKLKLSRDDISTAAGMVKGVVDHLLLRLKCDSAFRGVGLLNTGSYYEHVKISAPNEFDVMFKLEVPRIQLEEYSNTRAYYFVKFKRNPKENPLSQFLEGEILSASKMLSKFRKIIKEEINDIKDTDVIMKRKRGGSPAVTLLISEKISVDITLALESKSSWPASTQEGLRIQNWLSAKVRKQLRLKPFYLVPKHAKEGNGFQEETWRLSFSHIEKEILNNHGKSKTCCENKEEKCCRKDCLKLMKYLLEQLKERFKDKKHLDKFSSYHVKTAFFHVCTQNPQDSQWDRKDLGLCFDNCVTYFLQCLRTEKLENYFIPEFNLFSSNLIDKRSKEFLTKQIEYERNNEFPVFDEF

SMILES | IC50
O=C(CN1CCOC1=O)N1CCn2c(c(-c3cn[nH]c3)c3ccc(Cl)c(Cl)c32)C1 [Example 48] | 0.0443 µM
CC(=O)N1CCn2c(c(-c3cn[nH]c3)c3ccc(Cl)c(Cl)c32)C1 [Example 38, 1-[6,7-Dichloro-10-(1H-pyrazol-4-yl)-3,4-dihydro-1H-pyrazino[1,2-a]indol-2-yl]ethanone] | 0.0404 µM
CC(=O)NC1CCc2c(-c3cn[nH]c3)c3ccc(Cl)c(Cl)c3n2C1 (single isomer, unassigned) [Example 20, N-[3,4-Dichloro-10-(1H-pyrazol-4-yl)-6,7,8,9-tetrahydropyrido[1,2-a]indol-7-yl]acetamide] | 0.155 µM
CC(=O)NC1CCc2c(-c3cn[nH]c3)c3ccc(Cl)c(Cl)c3n2C1 (single isomer, unassigned) [Example 21, N-[3,4-Dichloro-10-(1H-pyrazol-4-yl)-6,7,8,9-tetrahydropyrido[1,2-a]indol-7-yl]acetamide] | 0.0243 µM
O=C(O)C1CCCc2c(-c3cn[nH]c3)c3ccc(Cl)c(Cl)c3n2C1 (centres unmarked) [Example 77, 3,4-Dichloro-11-(1H-pyrazol-4-yl)-7,8,9,10-tetrahydro-6H-azepino[1,2-a]indole-7-carboxylic acid] | 0.0157 µM
CC(=O)NC1CCn2c1c(-c1cn[nH]c1)c1ccc(Cl)c(Cl)c12 (single isomer, unassigned) [Example 27, N-(5,6-Dichloro-9-(1H-pyrazol-4-yl)-2,3-dihydro-1H-pyrrolo[1,2-a]indol-1-yl)acetamide] | 0.158 µM
O=C(O)C1CCCn2c(c(-c3cn[nH]c3)c3ccc(Cl)c(Cl)c32)C1 (single isomer, unassigned) [Example 24, 3,4-Dichloro-11-(1H-pyrazol-4-yl)-7,8,9,10-tetrahydro-6H-azepino[1,2-a]indole-9-carboxylic acid] | 0.0834 µM
CC(=O)N(C)CC(=O)N1CCn2c(c(-c3cn[nH]c3)c3ccc(Cl)c(Cl)c32)C1 [Example 52, N-[2-[6,7-dichloro-10-(1H-pyrazol-4-yl)-3,4-dihydro-1H-pyrazino[1,2-a]indol-2-yl]-2-oxo-ethyl]-N-methyl-acetamide] | 0.0975 µM
CN1CCn2c(c(-c3cn[nH]c3)c3ccc(Cl)c(Cl)c32)C1=O [Example 83, 6,7-Dichloro-2-methyl-10-(1H-pyrazol-4-yl)-3,4-dihydropyrazino[1,2-a]indol-1-one] | 0.0754 µM
Clc1ccc2c(-n3ccnc3)c[nH]c2c1Cl [Example 29, 6,7-Dichloro-3-imidazol-1-yl-1H-indole] | 0.0447 µM
CC(=O)N1CCOC(CC(=O)N2CCn3c(c(-c4cn[nH]c4)c4ccc(Cl)c(Cl)c43)C2)C1 (centres unmarked) [Example 82, 2-(4-Acetylmorpholin-2-yl)-1-[6,7-dichloro-10-(1H-pyrazol-4-yl)-3,4-dihydro-1H-pyrazino[1,2-a]indol-2-yl]ethanone] | 0.046 µM

Other lines, results leading:

IC50 | SMILES
0.152 µM | OC1CCc2c(-c3cn[nH]c3)c3ccc(Cl)c(Cl)c3n2C1 (single isomer, unassigned) [Example 18, 3,4-Dichloro-10-(1H-pyrazol-4-yl)-6,7,8,9-tetrahydropyrido[1,2-a]indol-7-ol]
0.0825 µM | NCCN1CCn2c(c(-c3cn[nH]c3)c3ccc(Cl)c(Cl)c32)C1=O [Example 33, 2-(2-Aminoethyl)-6,7-dichloro-10-(1H-pyrazol-4-yl)-3,4-dihydropyrazino[1,2-a]indol-1-one]
0.0462 µM | O=C1NCCn2c1c(-c1cn[nH]c1)c1ccc(Cl)c(Cl)c12 [Example 31, 6,7-Dichloro-10-(1H-pyrazol-4-yl)-3,4-dihydro-2H-pyrazino[1,2-a]indol-1-one]
0.0753 µM | O=C1Cn2c(c(-c3cn[nH]c3)c3ccc(Cl)c(Cl)c32)CCN1CCO [Example 79, 7,8-Dichloro-3-(2-hydroxyethyl)-11-(1H-pyrazol-4-yl)-2,3-dihydro-1H-[1,4]diazepino[1,7-a]indol-4(5H)-one]
0.0826 µM | CCOc1cc(Cl)c(Cl)c2[nH]cc(-c3cn[nH]c3)c12 [Example 56, 6,7-Dichloro-4-ethoxy-3-(1H-pyrazol-4-yl)-1H-indole]
0.0946 µM | O=C1CCn2c(c(-c3cn[nH]c3)c3ccc(Cl)c(Cl)c32)N1 [Example 55, 6,7-Dichloro-10-(1H-pyrazol-4-yl)-3,4-dihydro-1H-pyrimido[1,2-a]indol-2-one]
0.09 µM | Clc1ccc2c(-c3cn[nH]c3)c3n(c2c1Cl)CCNC3 [Example 37, 6,7-Dichloro-10-(1H-pyrazol-4-yl)-1,2,3,4-tetrahydropyrazino[1,2-a]indole hydrochloride]
0.0173 µM | N#CCOc1cc(Cl)c(F)c2[nH]cc(-c3cn[nH]c3)c12 [Example 70, 2-[[6-Chloro-7-fluoro-3-(1H-pyrazol-4-yl)-1H-indol-4-yl]oxy] acetonitrile]
0.0112 µM | N#CCOc1cc(Cl)c(Cl)c2c1c(-c1cn[nH]c1)c1n2CCN(C(=O)CO)C1 [Example 89, 2-((6,7-Dichloro-2-(2-hydroxyacetyl)-10-(1H-pyrazol-4-yl)-1,2,3,4-tetrahydropyrazino[1,2-a]indol-9-yl)oxy)acetonitrile]
0.0352 µM | OCCOc1cc(Cl)c(Cl)c2[nH]cc(-c3cn[nH]c3)c12 [Example 57, 2-((6,7-Dichloro-3-(1H-pyrazol-4-yl)-1H-indol-4-yl)oxy)ethanol]
0.0463 µM | NC(=O)COc1cc(Cl)c(F)c2[nH]cc(-c3cn[nH]c3)c12 [Example 71, 2-[[6-Chloro-7-fluoro-3-(1H-pyrazol-4-yl)-1H-indol-4-yl]oxy] acetamide]
0.0381 µM | O=C(O)CCc1[nH]c2c(Cl)c(Cl)ccc2c1-c1cn[nH]c1 [Example 54, 3-(6,7-Dichloro-3-(1H-pyrazol-4-yl)-1H-indol-2-yl) propanoic acid]
0.18 µM | N#Cc1c(Cl)ccc2c(-c3cn[nH]c3)c[nH]c12 [Example 93, 6-Chloro-3-(1H-pyrazol-4-yl)-1H-indole-7-carbonitrile]
0.064 µM | O=C(Cc1[nH]c2c(Cl)c(Cl)ccc2c1-c1cn[nH]c1)NCc1cnccn1 [Example 28, 2-[6,7-Dichloro-3-(1H-pyrazol-4-yl)-1H-indol-2-yl]-N-(pyrazin-2-ylmethyl)acetamide]
0.0158 µM | O=C(CO)Nc1cc(Cl)c(Cl)c2[nH]cc(-c3cn[nH]c3)c12 [Example 65, N-[6,7-Dichloro-3-(1H-pyrazol-4-yl)-1H-indol-4-yl]-2-hydroxy-acetamide]

same assay, conditions: 10 nM recombinant human cGAS, 60 nM 75-bp dsDNA, ATP, GTP, room temperature 3 hours, read-out: IC50 (μM), In vitro inhibition assay for Compounds 95-348

SMILES | IC50
O=C1COCCN1CC(=O)N1CCn2c(c(-c3cn[nH]c3)c3ccc(Cl)c(Cl)c32)C1 [Example 315, 4-(2-(6,7-Dichloro-10-(1H-pyrazol-4-yl)-3,4-dihydropyrazino[1,2-a]indol-2(1H)-yl)-2-oxoethyl)morpholin-3-one] | 0.0503 µM
CCNC(=O)COCC(=O)N1CCn2c(c(-c3cn[nH]c3)c3ccc(Cl)c(Cl)c32)C1 [Example 179, 2-[2-[6,7-Dichloro-10-(1H-pyrazol-4-yl)-3,4-dihydro-1H-pyrazino[1,2-a]indol-2-yl]-2-oxo-ethoxy]-N-ethyl-acetamide] | 0.0585 µM
COCCC(OC)C(=O)N1CCn2c(c(-c3cn[nH]c3)c3ccc(Cl)c(Cl)c32)C1 (centres unmarked) [Example 108, 1-[6,7-Dichloro-10-(1H-pyrazol-4-yl)-3,4-dihydro-1H-pyrazino[1,2-a]indol-2-yl]-2,4-dimethoxy-butan-1-one] | 0.0621 µM
CC(=O)N1CC(C(=O)N2CCn3c(c(-c4cn[nH]c4)c4ccc(Cl)c(Cl)c43)C2)C1 [Example 321, 1-(3-(6,7-Dichloro-10-(1H-pyrazol-4-yl)-1,2,3,4-tetrahydropyrazino[1,2-a]indole-2-carbonyl)azetidin-1-yl)ethan-1-one] | 0.0562 µM
CN1C(=O)CCCC1C(=O)N1CCn2c(c(-c3cn[nH]c3)c3ccc(Cl)c(Cl)c32)C1 (centres unmarked) [Example 331, 6-(6,7-Dichloro-10-(1H-pyrazol-4-yl)-1,2,3,4-tetrahydropyrazino[1,2-a]indole-2-carbonyl)-1-methylpiperidin-2-one] | 0.083 µM
CN1CC(C(=O)N2CCn3c(c(-c4cn[nH]c4)c4ccc(Cl)c(Cl)c43)C2)CC1=O (centres unmarked) [Example 319, 4-(6,7-Dichloro-10-(1H-pyrazol-4-yl)-1,2,3,4-tetrahydropyrazino[1,2-a]indole-2-carbonyl)-1-methylpyrrolidin-2-one] | 0.0534 µM
COC1(C(=O)N2CCn3c(c(-c4cn[nH]c4)c4ccc(Cl)c(Cl)c43)C2)CCOC1 (centres unmarked) [Example 334, (6,7-Dichloro-10-(1H-pyrazol-4-yl)-3,4-dihydropyrazino[1,2-a]indol-2(1H)-yl)(3-methoxytetrahydrofuran-3-yl)methanone] | 0.0985 µM

More lines, now with the values ahead:

IC50 | SMILES
0.0561 µM | CC(=O)NCC(=O)NCc1[nH]c2c(Cl)c(Cl)ccc2c1-c1cn[nH]c1 [Example 106, 2-Acetamido-N-((6,7-dichloro-3-(1H-pyrazol-4-yl)-1H-indol-2-yl)methyl)acetamide]
0.0712 µM | CCS(=O)(=O)NCc1[nH]c2c(Cl)c(Cl)ccc2c1-c1cn[nH]c1 [Example 105, N-((6,7-Dichloro-3-(1H-pyrazol-4-yl)-1H-indol-2-yl)methyl)ethanesulfonamide]
